Tests used:
Assay in all cases: relative viability (nuclei count vs DMSO), 5 days (fraction); higher = more cells survive
QS11 + Phenformin = compound: C1CC2=C(C1)C=C(C=C2)OC3=NC(=C4C(=N3)N(C=N4)CC5=CC=C(C=C5)C6=CC=CC=C6)N[C@@H](CC7=CC=CC=C7)CO [QS11] + N=C(N)NC(=N)NCCc1ccccc1 [Phenformin] (partner 250 µM)
Procedure, shortened: (§1)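 Lung cancer cell lines in 1536-well plates got either a single drug or a fixed anchor-drug dose together with five library-drug doses (not always all listed) in √10 steps, by pin tool, on the day after seeding. Nuclei were counted after 5 days, and relative viability is the treated-to-vehicle ratio of nuclei counts. Values are medians of duplicate plates.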

Darinaparsin + Dasatinib = compound: C[As](C)SC[C@H](NC(=O)CC[C@H](N)C(=O)O)C(=O)NCC(=O)O [Darinaparsin] + Cc1nc(Nc2ncc(C(=O)Nc3c(C)cccc3Cl)s2)cc(N2CCN(CCO)CC2)n1 [Dasatinib] (partner 0.075 µM)
Procedure, shortened: as §1

QS11 + Linsitinib = compound: C1CC2=C(C1)C=C(C=C2)OC3=NC(=C4C(=N3)N(C=N4)CC5=CC=C(C=C5)C6=CC=CC=C6)N[C@@H](CC7=CC=CC=C7)CO [QS11] + C[C@]1(O)C[C@@H](c2nc(-c3ccc4ccc(-c5ccccc5)nc4c3)c3c(N)nccn32)C1 [Linsitinib] (partner 1 µM)
Procedure, shortened: as §1

QS11 + Bortezomib = compound: C1CC2=C(C1)C=C(C=C2)OC3=NC(=C4C(=N3)N(C=N4)CC5=CC=C(C=C5)C6=CC=CC=C6)N[C@@H](CC7=CC=CC=C7)CO [QS11] + CC(C)C[C@H](NC(=O)[C@H](Cc1ccccc1)NC(=O)c1cnccn1)B(O)O [Bortezomib] (partner 0.002 µM)
Procedure, shortened: as §1

| Cell Line | relative viability (QS11 + Phenformin; first compound 0.08 µM) | relative viability (QS11 + Phenformin; first compound 0.253 µM) | relative viability (QS11 + Phenformin; first compound 0.8 µM) | relative viability (QS11 + Phenformin; first compound 2.53 µM) | relative viability (QS11 + Phenformin; first compound 8 µM) | relative viability (Darinaparsin + Dasatinib; first compound 0.08 µM) | relative viability (Darinaparsin + Dasatinib; first compound 0.8 µM) | relative viability (Darinaparsin + Dasatinib; first compound 2.53 µM) | relative viability (Darinaparsin + Dasatinib; first compound 8 µM) | relative viability (QS11 + Linsitinib; first compound 0.08 µM) | relative viability (QS11 + Linsitinib; first compound 0.253 µM) | relative viability (QS11 + Linsitinib; first compound 0.8 µM) | relative viability (QS11 + Linsitinib; first compound 2.53 µM) | relative viability (QS11 + Linsitinib; first compound 8 µM) | relative viability (QS11 + Bortezomib; first compound 0.08 µM) | relative viability (QS11 + Bortezomib; first compound 0.253 µM) | relative viability (QS11 + Bortezomib; first compound 0.8 µM) | relative viability (QS11 + Bortezomib; first compound 2.53 µM) | relative viability (QS11 + Bortezomib; first compound 8 µM) |
| --- | --- | --- | --- | --- | --- | --- | --- | --- | --- | --- | --- | --- | --- | --- | --- | --- | --- | --- | --- |
| NCI-H358 | 0.297 | 0.378 | 0.412 | 0.5 | 0.507 | 0.135 | 0.157 | 0.17 | 0.162 | 0.731 | 0.779 | 0.952 | 1.49 | 1.33 |  |  |  |  |  |
| NCI-H3122 | 0.376 | 0.399 |  | 0.384 | 0.322 | 0.998 | 0.73 | 0.71 | 0.968 | 1 | 1.17 | 0.919 | 1.17 | 0.842 | 1.03 | 1.1 | 0.67 | 1.07 | 0.864 |
| NCI-H2347 | 0.374 | 0.395 | 0.362 | 0.364 | 0.637 | 0.286 |  | 0.306 | 0.289 | 1.04 | 0.955 | 0.777 | 0.712 | 1.11 | 1.11 | 1.19 | 0.757 | 0.997 | 1.04 |
| HCC-15 | 0.541 | 0.519 | 0.445 | 0.44 | 0.5 | 0.675 | 0.562 | 0.577 | 0.628 | 0.965 | 0.993 |  | 0.857 | 0.841 | 1.06 | 1.16 |  | 1.03 | 0.982 |
| HCC-366 | 0.607 | 0.613 |  | 0.589 | 0.504 | 0.709 | 0.758 | 0.734 | 1.07 | 0.696 | 0.575 |  | 0.355 | 0.303 | 1.28 | 0.688 |  | 0.808 | 0.318 |
| BEN | 0.262 | 0.3 | 0.29 | 0.258 | 0.251 | 0.305 | 0.308 | 0.31 | 0.371 | 0.851 | 1.17 | 1.07 | 0.79 | 1.12 | 0.635 | 1.01 | 1.07 | 0.916 | 1.07 |
| NCI-H1993 | 0.522 | 0.583 | 0.528 | 0.615 | 0.52 | 0.68 | 0.532 | 0.535 | 0.575 | 0.622 | 0.718 | 0.682 | 0.7 | 0.857 | 0.959 | 1 | 1.04 | 1.35 | 0.998 |
| NCI-H2405 | 0.361 | 0.443 | 0.372 | 0.45 | 0.399 | 0.203 | 0.232 | 0.223 | 0.221 | 0.893 | 0.925 | 0.946 | 0.942 | 1.17 | 0.926 | 0.946 | 0.895 | 1.03 | 1.03 |
| NCI-H2126 | 0.542 | 0.505 | 0.552 | 0.561 | 0.541 | 0.56 | 0.616 | 0.556 | 0.681 | 0.71 | 0.814 | 0.679 | 0.683 | 0.643 | 1.1 | 1.07 | 0.882 | 1.22 | 0.904 |
| LK-2 | 0.243 | 0.76 | 0.524 | 0.426 | 0.411 | 0.201 |  | 0.301 | 0.274 | 0.341 | 0.619 | 0.668 | 0.31 | 0.81 |  |  |  |  |  |
| SK-MES-1 | 0.764 | 0.678 | 0.663 | 0.712 | 0.711 | 0.284 | 0.258 | 0.344 | 0.345 | 1.13 | 1.08 | 0.959 | 1.03 | 1.05 |  |  |  |  |  |
| NCI-H1944 | 0.202 | 0.204 |  | 0.196 | 0.145 | 0.203 | 0.2 | 0.208 | 0.192 | 1.18 | 1.38 |  | 1.18 | 1.26 |  |  |  |  |  |
| NCI-H1703 |  |  |  |  |  |  |  |  |  | 1.1 | 0.48 | 1.06 | 0.752 | 0.611 | 0.323 | 0.376 | 0.254 | 0.236 | 0.203 |
| Calu-6 |  |  |  |  |  |  |  |  |  | 0.971 | 0.936 | 0.762 | 0.921 | 1.21 | 1.12 | 1.07 | 0.953 | 1.06 | 0.817 |
| NCI-H1650 | 0.374 | 0.472 | 0.376 | 0.474 | 0.391 | 0.397 | 0.36 | 0.343 | 0.297 |  |  |  |  |  | 0.183 | 0.215 | 0.18 | 0.197 | 0.186 |
| IA-LM |  |  |  |  |  |  |  |  |  | 0.548 | 0.417 | 0.29 | 0.389 | 0.601 | 0.978 | 0.856 | 0.677 | 0.665 | 0.328 |
| NCI-H1395 | 0.397 | 0.437 | 0.425 | 0.457 | 0.453 | 0.438 | 0.377 | 0.427 | 0.405 |  | 1.01 | 1.17 | 1.16 | 1.18 |  |  |  |  |  |
| A549 | 0.115 | 0.256 | 0.154 | 0.125 | 0.197 |  |  |  |  | 0.506 | 0.558 | 0.507 | 0.475 | 0.885 |  |  |  |  |  |
| EBC-1 |  |  |  |  |  |  |  |  |  | 0.966 | 0.86 | 0.696 | 0.75 | 1.05 | 0.535 | 0.444 | 0.479 | 0.408 | 0.271 |
| NCI-H1623 | 0.497 | 0.576 | 0.489 | 0.548 | 0.602 | 0.574 | 0.548 | 0.518 | 0.553 |  |  |  |  |  |  |  |  |  |  |
| NCI-H522 | 0.689 | 0.656 | 0.621 | 0.705 | 0.677 | 0.853 | 0.902 | 0.804 | 0.918 |  |  |  |  |  |  |  |  |  |  |
| NCI-H2170 | 0.436 | 0.404 | 0.399 | 0.44 | 0.392 | 0.65 | 0.612 | 0.481 | 0.647 |  |  |  |  |  |  |  |  |  |  |
| NCI-H1299 |  |  |  |  |  |  |  |  |  | 0.999 | 0.995 | 0.787 | 0.87 | 0.959 | 1.03 | 1.06 | 0.915 | 0.969 | 0.841 |
| SW 900 | 0.54 | 0.578 | 0.709 | 0.417 | 0.402 | 0.512 | 0.454 | 0.654 | 0.514 |  |  |  |  |  |  |  |  |  |  |

— the supplement of paper PMC10307832
